Experiments:
[1] = target: T1, PfGSK-3 (Plasmodium falciparum, UniProt O77344); experiment: Kinase assay with recombinant (His)6-tagged PfGSK3, GS-1 peptide and [γ-33P] ATP; type: biochemical; details: for anti-PfGSK-3 IC50 values: result in words; for IC50: unit only in the introducing sentence b99, not in the table, read-out: IC50 PfGSK-3
T1 construct: His6; made in house; host or cells: Escherichia coli TOP 10
T1 sequence (O77344 1-440): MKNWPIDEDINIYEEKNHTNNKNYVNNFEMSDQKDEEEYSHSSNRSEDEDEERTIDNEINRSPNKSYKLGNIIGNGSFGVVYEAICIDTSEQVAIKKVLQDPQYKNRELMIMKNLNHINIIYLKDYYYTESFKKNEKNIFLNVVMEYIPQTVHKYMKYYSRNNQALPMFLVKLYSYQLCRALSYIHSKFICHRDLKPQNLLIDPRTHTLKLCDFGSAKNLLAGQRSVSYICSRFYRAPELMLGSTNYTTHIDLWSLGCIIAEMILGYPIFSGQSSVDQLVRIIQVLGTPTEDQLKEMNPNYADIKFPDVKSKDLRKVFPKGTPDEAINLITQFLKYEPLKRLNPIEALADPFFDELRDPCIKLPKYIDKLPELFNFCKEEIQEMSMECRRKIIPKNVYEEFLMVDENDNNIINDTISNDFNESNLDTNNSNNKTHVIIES
Description: Escherichia coli strain (TOP 10) containing a plasmid encoding PfGSK3 with six histidines (pBAD-Thio-TOPO, Invitrogen) were cultured into 500 ml of LB medium containing 100 µg/ml ampicillin, at 37°C, under shaking (250 rpm) until OD600 of 0.5 was reached. Expression was induced with 0.5 ml of 20% arabinose (0.02% final concentration). The culture was grown at 37°C with shaking for 4 hours. Cells were harvested by centrifugation at 9000 rpm for 10 min. The bacterial pellet was stored frozen at -80°C until further processing. For proteins extraction, pellet was resuspended in 10 ml of lysis buffer (50 mM NaH2PO4 pH 8.0, 300 mM NaCl, 10 mM imidazole) with the addition of protease inhibitors (complete EDTA-free, Roche) and lysozyme ([…] final). Cells were disrupted by sonication and the cell lysate was centrifuged at 24000 rpm for 30 min at 4°C. The recombinant PfGSK3 protein was purified by Immobilized Metal Affinity Chromatography according to a batch procedure on 1 ml of Nickel affinity resin (Ni-NTA agarose beads, Qiagen). Beads were washed four times with 10 ml of wash buffer (50 mM NaH2PO4 pH 8.0, 300 mM NaCl, 30 mM imidazole). Protein was eluted with one volume of elution buffer (50 mM NaH2PO4 pH 8.0, 300 mM NaCl, 250 mM imidazole, 10% glycerol).
(§1) Both porcine GSK3 and PfGSK3 were assayed with 40 µM GS-1 peptide, a specific GSK-3 substrate, ([…]pEDEEE, synthesized by the Peptide Synthesis Unit, Institute of Biomolecular Sciences, University of Southampton, U.K.), in buffer A (25 mM Tris-HCl pH 7.5, 10 mM MgC12, 1 mM EGTA, 1 mM DTT, 50 µg heparin/ml, 0.5 mg BSA/ml) in the presence of 15 µM [γ-^33P] ATP (3000 Ci/mmol; 1 mCi/ml) in a final volume of 30 µl. After 30 min. incubation at 30°C, 25 µl aliquots of supernatant were spotted onto 2.5 x 3 cm pieces of Whatman P81 phosphocellulose paper, and, 20 sec. later, the filters were washed five times (for at least 5 min. each time) in 1 % phosphoric acid. The wet filters were counted in the presence of 1 ml ACS (Amersham) scintillation fluid. The kinase activity was expressed in pmoles phosphate incorporated in GS-1 or in percentage of the maximal activity.

[2] = target: Mammalian GSK-3 (GSK-3α/β); experiment: Kinase assay with native porcine GSK3 purified from porcine brain, GS-1 peptide and [γ-33P] ATP; type: biochemical; details: for anti-mammalian GSK-3 IC50 values: result in words; for IC50: -(10) taken as no inhibition at 10, read-out: IC50 Mammalian GSK-3
Description: Porcine GSK3 (GSK-3α/β) was purified from porcine brain by affinity chromatography on immobilized axin according to the protocol described in Primot et al (Protein Expression and Purification 20, 394-404, 2000).
as §1

Row | SMILES | anti-PfGSK-3 IC50 values [1] | anti-mammalian GSK-3 IC50 values [2] | IC50 [1] [nM] | IC50 [2] [nM]
1 | N#Cc1c(N)nc2sc(C(=O)c3cccc(C(F)(F)F)c3)c(N)c2c1-c1ccccc1Cl [Compound 25, 3,6-diamino-4-(2-chlorophenyl)-2-[3-(trifluoromethyl)benzoyl]thieno[2,3-b]pyridine-5-carbonitrile] | particularly good | do not demonstrate good |  | 
2 | N#Cc1c(N)nc2sc(C(=O)c3ccc(Cl)c(Cl)c3)c(N)c2c1-c1ccccc1Br [Compound 21, 3,6-diamino-4-(2-bromophenyl)-2-(3,4-dichlorobenzoyl)thieno[2,3-b]pyridine-5-carbonitrile] | particularly good | do not demonstrate good | 3800 | > 10000
3 | N#Cc1sc2nc(N)c(C#N)c(-c3cccs3)c2c1N [Compound 41, 3,6-diamino-4-(2-thienyl)thieno[2,3-b]pyridine-2,5-dicarbonitrile] |  |  | 180 | 2300
4 | Cc1ccccc1-c1c(C#N)c(N)nc2sc(C#N)c(N)c12 [Compound 40, 3,6-diamino-4-(2-methylphenyl)thieno[2,3-b]pyridine-2,5-dicarbonitrile] |  |  | 510 | 2000
5 | N#Cc1c(N)nc2sc(C(=O)c3ccc(Cl)c(Cl)c3)c(N)c2c1-c1ccccc1Cl [Compound 23, 3,6-diamino-4-(2-chlorophenyl)-2-(3,4-dichlorobenzoyl)thieno[2,3-b]pyridine-5-carbonitrile] | particularly good | do not demonstrate good |  | 
6 | N#Cc1c(N)nc2sc(C(=O)c3cccc(Br)c3)c(N)c2c1-c1ccccc1Cl [Compound 27, 3,6-diamino-2-(3-bromobenzoyl)-4-(2-chlorophenyl)thieno[2,3-b]pyridine-5-carbonitrile] | particularly good | do not demonstrate good |  | 
7 | Cc1ccc(C(=O)c2sc3nc(N)c(C#N)c(-c4ccccc4I)c3c2N)cc1 [Compound 12, 3,6-diamino-4-(2-iodophenyl)-2-(4-methylbenzoyl)thieno[2,3-b]pyridine-5-carbonitrile] | particularly good | do not demonstrate good |  | 
8 | COc1ccc(C(=O)c2sc3nc(N)c(C#N)c(-c4ccccc4I)c3c2N)cc1 [Compound 11, 3,6-diamino-4-(2-iodophenyl)-2-(4-methoxybenzoyl)thieno[2,3-b]pyridine-5-carbonitrile] | particularly good | do not demonstrate good | 1700 | > 10000
9 | COc1ccccc1-c1c(C#N)c(N)nc2sc(C(=O)c3cccc(Cl)c3)c(N)c12 [Compound 7, 3,6-diamino-2-(3-chlorobenzoyl)-4-(2-methoxyphenyl)thieno[2,3-b]pyridine-5-carbonitrile] | particularly good | do not demonstrate good |  | 
10 | N#Cc1c(N)nc2sc(C(=O)c3ccccc3)c(N)c2c1-c1ccccc1Br [Compound 18, 3,6-diamino-2-benzoyl-4-(2-bromophenyl)thieno[2,3-b]pyridine-5-carbonitrile] | particularly good | do not demonstrate good |  | 
11 | N#Cc1c(N)nc2sc(C(=O)c3cccc(Cl)c3)c(N)c2c1-c1c(Cl)cccc1Cl [Compound 30, 3,6-diamino-2-(3-chlorobenzoyl)-4-(2,6-dichlorophenyl)thieno[2,3-b]pyridine-5-carbonitrile] | particularly good | do not demonstrate good |  | 
12 | COc1cccc(C(=O)c2sc3nc(N)c(C#N)c(-c4ccccc4Cl)c3c2N)c1 [Compound 24, 3,6-diamino-4-(2-chlorophenyl)-2-(3-methoxybenzoyl)thieno[2,3-b]pyridine-5-carbonitrile] | particularly good | do not demonstrate good |  | 
13 | N#Cc1c(N)nc2sc3c(=S)[nH]cnc3c2c1-c1ccccc1Cl [Compound 47, 7-amino-9-(2-chlorophenyl)-4-thioxo-3,4-dihydropyrido[3',2':4,5]thieno[3,2-d]pyrimidine-8-carbonitrile] |  |  | 130 | 60
